Assay results taken from paper PMC2362735, “New semisynthetic vinca alkaloids: chemical, biochemical and cellular studies” (British Journal of Cancer, 1999).
Read-outs that look alike come from different tables or passages of the source. Each block holds one compound with its values, some of them ahead of it.

What was measured:
[1] = tested on: Mouse leukaemia P388 cells; assay: In vivo anti-tumour effect on P388 mouse leukaemia, single i.p. dose; details: for Dose (mg kg-1) giving the maximal effect: P388, single doses i.p.; for Maximal effect T/C (%): P388, single doses i.p. 24 h after transplantation, median survival treated/control x 100, six animals per group
Text: (§1) The numerous antimitotic drugs already developed and therapeu- tically used for a large number of pathologies belong to different classes based on their chemical structure and other distinctive features. Antimitotic drugs usually target the tubulin/microtubule network of the cytoskeleton that is formed by assembly of cyto- plasmic tubulin dimers. The stability of the different microtubular structures varies considerably; some of their functions depend on their lability. The lability is augmented by the extreme sensitivity to various drugs. Several synthetic and natural compounds interact specifically with tubulin and/or microtubule, fundamentally destroying its dynamic character and leading to cell death. […] Because of their extensive clinical use, it is important to synthesize additional agents having at least the same biological activity. […] Nevertheless, it is unclear yet how the anti-calmodulin activity of these drugs is related to their desired and undesired pharmacological effects. […] The synthesis of the KAR derivatives are presented. […] Taxol, GTP and trifluoperazine were purchased from Sigma. All organic reagents for synthesis of the new compounds were obtained from Aldrich and were of the highest grade. All other chemicals were reagent grade commercial preparations. […] Tubulin was stored in 1 M sucrose, 10 mM sodium phosphate buffer, 0.5 mM magnesium chloride and 0.1 mM GTP, pH 7.0, at -80C and dialysed against the appropriate buffer before use. […] PFK, aldolase and glycerol-3-phosphate dehydrogenase- triosephosphate isomerase purified from rabbit skeletal muscle were purchased in ammonium sulphate suspensions from Sigma or Boehringer. The enzyme suspensions were centrifuged at 10 000g for 5 min. The pellets were suspended in the appropriate buffer, then the enzymes were gel filtered or dialysed in the same buffer to remove ammonium sulphate. […] (Figure 1B; R1 , CH3; R2 , CH2 CH2 Cl). […] After 2 h incubation at room temperature, 200 ml dried toluene was added to the reaction mixture. […] The mixture was stirred for 30 min. After separation of the organic phase, it was washed with water (3 x 30 ml) and dried with potassium sulphate and evaporated on a water bath of 35-40C at 20-27 hPa. The resulting material was chromatographed on silica gel (500 g, bead size of 0.040- 0.063 mm) column (30 mm x 500 mm) using ethyl acetate/ethanol (9:1) mixture as eluent. […] The mixture was kept for 4 h at room temperature and then evaporated on a water bath at 40C under a vacuum of 80 hPa to a final volume of 5-6 ml. […] (Figure 1B, R1 , CHO; R2 , CH2 CH2 Cl). […] Synthesis of KAR-4 [3-allyl-2,4-dioxo-3,5-spiro-oxazolidino- 4-deacetoxy-vinblastine] (Figure 1B; R1 , CH3; R2 , CH2 CH=CH2 ). […] NMR measurements were carried out on a Varian Unity plus-500 instrument (500 MHz for 1H and 125 MHz for 13C) in DMSO. Chemical shifts were determined relative to dTMS = 0.00 p.p.m. 1H and 13C signal assignments were verified by a concerted use of two-dimensional 1H-1H and 1H-13C shift correlation methods (DQFCOSY, HSQC, HMBC) and NOESY experiments. The gradient-enhanced DQFCOSY, HSQC, HMBC and NOESY experiments were recorded by using the standard spectrometer software package. A mixing time of tmix = 0.5 s was used for the NOESY experiments.

[2] = tested on: Mouse Ehrlich ascites tumour cells; assay: In vivo anti-tumour effect on Ehrlich ascites carcinoma, single i.p. dose 4 days after transplantation
Text: as §1

[3] = tested on: Human neuroblastoma cell line (SH-SY5Y); assay: Microculture tetrazolium assay (MTA), cytotoxicity
Text: as §1

tubulin = assay: Taxol-induced tubulin polymerization, turbidity at 350 nm; type: biochemical, calf; details: taxol-induced assembly, MES buffer pH 6.8, 37C; average of three independent measurements; read-out: Anti-tubulin effect, turbidity at 350 nm, IC50
Text: as §1

calmodulin = target: T1, calmodulin (Bos taurus, UniProt P62157); assay: Anti-calmodulin activity assay: calmodulin-induced PFK inactivation; type: biochemical, bovine; details: drug 20 M; for Effect on calmodulin induced PFK inactivation: Activity (U mg-1): PFK 1.2 M protomers, calmodulin 3 M, 60 min, without calmodulin 66.6 U mg-1, with calmodulin 8.0 U mg-1; for Anti-calmodulin activity: Efficiency (%): calculated from the activity data (100% = PFK without calmodulin, 0% = PFK with calmodulin)
T1 construct: Calmodulin from bovine brain was purified to homogeneity using Phenyl-Sepharose (Pharmacia) chromatography; from tissue; host or cells: bovine brain
Text: The numerous antimitotic drugs already developed and therapeu- tically used for a large number of pathologies belong to different classes based on their chemical structure and other distinctive features. Antimitotic drugs usually target the tubulin/microtubule network of the cytoskeleton that is formed by assembly of cyto- plasmic tubulin dimers. The stability of the different microtubular structures varies considerably; some of their functions depend on their lability. The lability is augmented by the extreme sensitivity to various drugs. Several synthetic and natural compounds interact specifically with tubulin and/or microtubule, fundamentally destroying its dynamic character and leading to cell death. […] Because of their extensive clinical use, it is important to synthesize additional agents having at least the same biological activity. […] Nevertheless, it is unclear yet how the anti-calmodulin activity of these drugs is related to their desired and undesired pharmacological effects. […] The synthesis of the KAR derivatives are presented. […] Taxol, GTP and trifluoperazine were purchased from Sigma. All organic reagents for synthesis of the new compounds were obtained from Aldrich and were of the highest grade. All other chemicals were reagent grade commercial preparations. […] Tubulin was stored in 1 M sucrose, 10 mM sodium phosphate buffer, 0.5 mM magnesium chloride and 0.1 mM GTP, pH 7.0, at -80C and dialysed against the appropriate buffer before use. […] PFK, aldolase and glycerol-3-phosphate dehydrogenase- triosephosphate isomerase purified from rabbit skeletal muscle were purchased in ammonium sulphate suspensions from Sigma or Boehringer. The enzyme suspensions were centrifuged at 10 000g for 5 min. The pellets were suspended in the appropriate buffer, then the enzymes were gel filtered or dialysed in the same buffer to remove ammonium sulphate. […] (Figure 1B; R1 , CH3; R2 , CH2 CH2 Cl). […] After 2 h incubation at room temperature, 200 ml dried toluene was added to the reaction mixture. […] The mixture was stirred for 30 min. After separation of the organic phase, it was washed with water (3 x 30 ml) and dried with potassium sulphate and evaporated on a water bath of 35-40C at 20-27 hPa. The resulting material was chromatographed on silica gel (500 g, bead size of 0.040- 0.063 mm) column (30 mm x 500 mm) using ethyl acetate/ethanol (9:1) mixture as eluent. […] The mixture was kept for 4 h at room temperature and then evaporated on a water bath at 40C under a vacuum of 80 hPa to a final volume of 5-6 ml. […] (Figure 1B, R1 , CHO; R2 , CH2 CH2 Cl). […] Synthesis of KAR-4 [3-allyl-2,4-dioxo-3,5-spiro-oxazolidino- 4-deacetoxy-vinblastine] (Figure 1B; R1 , CH3; R2 , CH2 CH=CH2 ). […] NMR measurements were carried out on a Varian Unity plus-500 instrument (500 MHz for 1H and 125 MHz for 13C) in DMSO. Chemical shifts were determined relative to dTMS = 0.00 p.p.m. 1H and 13C signal assignments were verified by a concerted use of two-dimensional 1H-1H and 1H-13C shift correlation methods (DQFCOSY, HSQC, HMBC) and NOESY experiments. The gradient-enhanced DQFCOSY, HSQC, HMBC and NOESY experiments were recorded by using the standard spectrometer software package. A mixing time of tmix = 0.5 s was used for the NOESY experiments. […] Mass spectrum was recorded on a Kratos MS 80 instrument using FAB.

[4] = tested on: Mouse leukaemia P388 cells; design: method as in Orosz et al (1997a); details: P388, single doses i.p.; data published also in ref Orosz et al (1997a); cited from earlier work
[5] = target: Phosphofructokinase [ATP: D-fructose 6-phosphate 1-phospho-transferase, EC 2.7.1.11] from rabbit skeletal muscle (rabbit) (UniProt P00511)
Sequence of Phosphofructokinase [ATP: D-fructose 6-phosphate 1-phospho-transferase, EC 2.7.1.11] from rabbit skeletal muscle (rabbit) (P00511 whole entry): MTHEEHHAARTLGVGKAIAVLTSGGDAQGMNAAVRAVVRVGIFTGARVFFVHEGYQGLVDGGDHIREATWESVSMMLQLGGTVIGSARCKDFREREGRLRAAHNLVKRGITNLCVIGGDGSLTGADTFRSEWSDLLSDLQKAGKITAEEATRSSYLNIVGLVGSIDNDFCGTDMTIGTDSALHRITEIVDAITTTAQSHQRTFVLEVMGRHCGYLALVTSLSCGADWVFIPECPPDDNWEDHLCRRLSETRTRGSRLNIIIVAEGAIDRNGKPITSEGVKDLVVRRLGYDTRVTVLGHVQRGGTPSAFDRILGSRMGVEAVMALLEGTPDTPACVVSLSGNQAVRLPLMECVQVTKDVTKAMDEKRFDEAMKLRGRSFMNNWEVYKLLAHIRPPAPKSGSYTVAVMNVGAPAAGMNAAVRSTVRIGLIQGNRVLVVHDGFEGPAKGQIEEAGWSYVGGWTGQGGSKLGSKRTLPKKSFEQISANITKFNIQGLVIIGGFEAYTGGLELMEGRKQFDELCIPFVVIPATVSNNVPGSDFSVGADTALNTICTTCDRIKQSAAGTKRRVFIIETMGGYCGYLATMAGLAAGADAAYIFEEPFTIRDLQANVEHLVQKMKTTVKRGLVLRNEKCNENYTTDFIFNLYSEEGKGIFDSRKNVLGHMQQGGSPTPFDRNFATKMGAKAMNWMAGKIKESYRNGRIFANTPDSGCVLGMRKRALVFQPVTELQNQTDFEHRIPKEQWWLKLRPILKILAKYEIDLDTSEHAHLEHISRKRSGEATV

[6] = Table 2A, 40 mg kg-1 single dose i.p.
[7] = Table 2A, 40 mg kg-1 single dose i.p., sacrifice 8 days after implantation, control 5.33 ml
[8] = read-out: Cytotoxicity MTA IC50, 4-day treatment, MTT
[9] = Table 2B, 2 mg kg-1 single dose i.p.
[10] = Table 2B, 5 mg kg-1 single dose i.p.
[11] = Table 2B, 10 mg kg-1 single dose i.p.

Compound: CCC1(O)CC2CN(CCc3c([nH]c4ccccc34)C(C(=O)OC)(c3cc4c(cc3OC)N(C=O)C3C5(CC6(CC)C=CCN7CCC43C76)OC(=O)N(CCCl)C5=O)C2)C1 (centres unmarked) [KAR-3, 3-(-chloroethyl)-2,4-dioxo-3,5-spiro-oxazolidino-4-deacetoxy-vincristine]
Dose (mg kg-1) giving the maximal effect [1]: 20 mg/kg
Maximal effect T/C (%) [1]: 187%
Cells ml-1 (per cent of control) [2, 6]: 57 per cent of control
Total cells (per cent of control) [2, 6]: 32 per cent of control
Volume of tumour per mouse [2, 7]: 3.00 mL
IC50 [3, 8]: 3.1e-07 M
IC50 (tubulin): 136 nM
Effect on calmodulin induced PFK inactivation: Activity (U mg-1) (calmodulin): 34.4 U mg-1
anti-calmodulin activity in the PFK assay (in words) (calmodulin): significant anti-calmodulin potency
reduction of the calmodulin-mediated inactivation of PFK (calmodulin): about 50%
Anti-calmodulin activity: Efficiency (%) (calmodulin): 45%

Compound: C=CCN1C(=O)O[C@@]2(C[C@]3(CC)C=CCN4CC[C@@]5(c6cc([C@@]7(C(=O)OC)C[C@@H]8CN(CCc9c7[nH]c7ccccc97)C[C@](O)(CC)C8)c(OC)cc6N(C)[C@H]52)[C@@H]43)C1=O [KAR-4, 3-allyl-2,4-dioxo-3,5-spiro-oxazolidino-4-deacetoxy-vinblastine]
Dose (mg kg-1) giving the maximal effect [1]: 40 mg/kg
Maximal effect T/C (%) [1]: 214%
Cells ml-1 (per cent of control) [2, 6]: 90 per cent of control
Total cells (per cent of control) [2, 6]: 57 per cent of control
Volume of tumour per mouse [2, 7]: 3.33 mL
IC50 [3, 8]: 3.5e-07 M
IC50 (tubulin): 185 nM
Effect on calmodulin induced PFK inactivation: Activity (U mg-1) (calmodulin): 10.9 U mg-1
anti-calmodulin activity in the PFK assay (in words) (calmodulin): does not display anti-calmodulin activity
Anti-calmodulin activity: Efficiency (%) (calmodulin): 5%

Compound: CC[C@]1(O)C[C@H]2CN(CCc3c([nH]c4ccccc34)[C@@](C(=O)OC)(c3cc4c(cc3OC)N(C=O)[C@H]3[C@@](O)(C(=O)OC)[C@H](OC(C)=O)[C@]5(CC)C=CCN6CC[C@]43[C@@H]65)C2)C1 [Vincristine, vincristine, reference compound]
mortality of treated animals ([2]; 15 mg kg-1 (highest dose) single dose i.p., three mice per group): death of two of the three treated animals
Total cells (per cent of control) ([2]; Table 2B, 1 mg kg-1 single dose i.p.): 57 per cent of control
Volume of tumour per mouse ([2]; Table 2B, 1 mg kg-1 single dose i.p., control 2.67 ml): 2.00 mL
Cells ml-1 (per cent of control) [2, 9]: 106 per cent of control
Total cells (per cent of control) [2, 9]: 60 per cent of control
Volume of tumour per mouse ([2]; Table 2B, 2 mg kg-1 single dose i.p., control 2.67 ml): 1.50 mL
Cells ml-1 (per cent of control) [2, 10]: 225 per cent of control
Total cells (per cent of control) [2, 10]: 54 per cent of control
Volume of tumour per mouse ([2]; Table 2B, 5 mg kg-1 single dose i.p., control 2.67 ml): 0.64 mL
Cells ml-1 (per cent of control) [2, 11]: 224 per cent of control
Total cells (per cent of control) [2, 11]: 45 per cent of control
Volume of tumour per mouse ([2]; Table 2B, 10 mg kg-1 single dose i.p., control 2.67 ml): 0.53 mL
maximum dose that did not result in the death of the animals ([2]; single dose i.p., Ehrlich ascites mice): 10 mg/kg
IC50 ([3]; Homo sapiens, 96 h, read-out: Cytotoxicity MTA IC50): 1.3e-08 M
IC50 ([3]; Homo sapiens, 96 h, read-out: Cytotoxicity MTA IC50 (M)): 1.3e-08 M
IC50 (tubulin): 290 nM
Dose (mg kg-1) giving the maximal effect [4]: 1 mg/kg

PFK activity after 60 min incubation with calmodulin and KAR-2 (calmodulin induced PFK inactivation) [5]: 11.1 U mg-1
PFK activity after 60 min incubation with calmodulin and KAR-3 (calmodulin induced PFK inactivation) [5]: 34.4 U mg-1
PFK activity after 60 min incubation with calmodulin and KAR-4 (calmodulin induced PFK inactivation) [5]: 10.9 U mg-1
PFK activity after 60 min incubation with calmodulin and trifluoperazine (calmodulin induced PFK inactivation) [5]: 46.1 U mg-1
efficiency of KAR-2 in suspending the calmodulin induced PFK inactivation [5]: 5%
efficiency of KAR-3 in suspending the calmodulin induced PFK inactivation [5]: 45%
efficiency of KAR-4 in suspending the calmodulin induced PFK inactivation [5]: 5%
efficiency of trifluoperazine in suspending the calmodulin induced PFK inactivation [5]: 65%
residual PFK activity after 60 min incubation with calmodulin, no drug (66.6 U mg-1 without calmodulin) [5]: 8 U mg-1
Compound: Calmodulin from bovine brain (from UniProt P62157 1-149) (natural protein)
